Data published in patent publication US10000456B2, “Polycyclic compounds as lysophosphatidic acid receptor antagonists” (AMIRA PHARMACEUTICALS, INC., priority 2009, dated 2018).
pIC50: −log10 of the molar value.

Columns and labels:
[1] = system: A2058 human melanoma cells; assay: LPA1 chemotaxis assay; format: cell-based; conditions: LPA 100 nM, read-out: IC50, inhibition of LPA-driven chemotaxis
Experimental: Chemotaxis of the A2058 human melanoma cells was measured using the Neuroprobe CHEMOTX® System plates ([…], 5.7 mm diameter sites). The filter sites were coated with 0.001% fibronectin (Sigma) in 20 mM Hepes, pH 7.4 and allowed to dry. A2058 cells were serum-starved for 24 hours, then harvested with Cell Stripper and resuspended in DMEM containing 0.1% fatty-acid-free bovine serum albumin (BSA) to a concentration of 1×10^6/ml. Cells were mixed with an equal volume of test compound (2×) in DMEM containing 0.1% fatty-acid-free BSA and incubated at 37° C. for 15 minutes. LPA (100 nM in DMEM containing 0.1% fatty-acid-free BSA) or vehicle was added to each well of the lower chamber and 50 μl of the cell suspension/test compound mix was applied to the upper portion of the CHEMOTX® plate. Plates were incubated at 37° C. for three hours and then the cells removed from the upper portion by rinsing with PBS and scraping. The filter was dried then stained with HEMA 3® Staining System (Fisher Scientific). The absorbance of the filter was read at 590 nm and IC50s were determined using SYMYX® Assay Explorer.

[2] = system: bleomycin-induced lung fibrosis; assay: Bleomycin-induced lung fibrosis model in mice; format: in vivo; conditions: acute setting (3 day)
From the text: Female C57Bl/6 mice (Harlan, 25-30 g) are housed 4 per cage, given free access to food and water and allowed to acclimate for at least 7 days prior to test initiation. After the habituation phase, mice are lightly anesthetized with isoflurane (5% in 100% O2) and administered with bleomycin sulfate (0.01-5 U/kg, Henry Schein) via intratracheal instillation (Cuzzocrea, S. et al., Am. J. Physiol. Lung. Cell. Mol. Physiol., 292(5):[…]-[…] (Epub Jan. 12, 2007)). Mice are returned to their cages and monitored daily for the duration of the experiment. Test compound or vehicle is delivered p.o., i.p. or s.c. daily. The route and frequency of dosing is based on previously determined pharmacokinetic properties. […] BALF is analyzed for concentrations of inflammatory, pro-fibrotic and tissue injury biomarkers including transforming growth factor 131, hyaluronic acid, tissue inhibitor of metalloproteinase-1, matrix matelloproteinase-7, connective tissue growth factor and lactate dehydrogenase activity, using commercially available ELISA. […] Total cell counts are then obtained using a HEMAVET® hematology system (Drew Scientific, Wayne, Pa.) and differential cells counts are determined using Shandon cytospin (Thermo Scientific, Waltham, Mass.). […] The data are plotted using GraphPad Prism and statistical differences between groups determined.

[3] = target: T1, human LPA1 (Homo sapiens, UniProt Q92633); assay: LPA1 calcium flux assay (HLPA1 Ca Flux); format: cell-based; conditions: CHO cells expressing human LPA1, stimulated with 10 nM LPA
T1 construct: the full-length cDNA for human LPA1 was obtained by PCR of the reverse transcription reaction; expressed in transfected cells
T1 sequence (Q92633 whole entry): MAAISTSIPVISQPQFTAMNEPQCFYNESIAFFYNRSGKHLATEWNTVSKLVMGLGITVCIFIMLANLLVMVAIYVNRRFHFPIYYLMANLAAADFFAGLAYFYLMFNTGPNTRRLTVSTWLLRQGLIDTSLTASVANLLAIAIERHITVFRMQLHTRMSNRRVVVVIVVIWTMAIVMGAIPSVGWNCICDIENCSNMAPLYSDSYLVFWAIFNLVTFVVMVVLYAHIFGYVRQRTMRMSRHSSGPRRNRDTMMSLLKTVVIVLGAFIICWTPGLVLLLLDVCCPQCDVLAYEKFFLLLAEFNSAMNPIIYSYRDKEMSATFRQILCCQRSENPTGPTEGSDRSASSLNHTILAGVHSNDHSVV
Experimental: A 1.1 kb cDNA encoding the human LPA1 receptor was cloned from human lung. Human lung RNA (Clontech Laboratories, Inc. USA) was reverse transcribed using the RETROSCRIPT® kit (Ambion, Inc.) and the full-length cDNA for human LPA1 was obtained by PCR of the reverse transcription reaction. The nucleotide sequence of the cloned human LPA1 was determined by sequencing and confirmed to be identical to the published human LPA1 sequence (An et al., Biochem. Biophys. Res. Commun., 231:619 (1997). The cDNA was cloned into the pcDNA5/FRT expression plasmid and transfected in CHO cells using Lipofectamine 2000 (Invitrogen Corp., USA). Clones stably expressing human LPA1 were selected using hygromycin and identified as cells that show Ca-influx in response to LPA.
Human LPA1 or LPA3 expressing CHO cells are seeded at 20,000-45,000 cells per well in a 96-well poly-D-lysine coated plate one or two days before the assay. Prior to the assay, the cells are washed once with PBS and then cultured in serum-free media overnight. […] Cells are the stimulated by the addition of 10 nM LPA and intracellular Ca^2+ measured using the FLEXSTATION® 3 (Molecular Devices). IC50s are determined using GraphPad prism analysis of drug titration curves.

[4] = system: renal fibrosis; conditions: compared with LPA1 (−/−) mice; cited from earlier work
[5] = system: highly peritoneal metastatic pancreatic cancer cell line; conditions: cited from earlier work

Row | SMILES | pIC50 [1] | also measured
1 | Cc1noc(-c2ccc(-c3ccc(C4(C(=O)O)CC4)cc3)cc2)c1Nc1cccc(-c2cc(F)ccc2Cl)n1 [Compound 79, 1-(4′-{4-[6-(2-Chloro-5-fluoro-phenyl)-pyridin-2-ylamino]-3-methyl-isoxazol-5-yl}-biphenyl-4-yl)-cyclopropanecarboxylic acid] | > 7.00 | –
2 | Cc1noc(-c2ccc(-c3ccc(C4(C(=O)O)CC4)cc3)cc2)c1Nc1cccc(Cc2ccccc2)n1 [Compound 38, 1-{4′-[4-(6-Benzyl-pyridin-2-ylamino)-3-methyl-isoxazol-5-yl]-biphenyl-4-yl}-cyclopropanecarboxylic acid] | > 7.00 | –
3 | Cc1noc(-c2ccc(-c3ccc(C4(C(=O)O)CC4)cc3)cc2)c1Nc1cccc(Cc2ccccc2F)n1 [Compound 45, 1-(4′-{4-[6-(2-Fluoro-benzyl)-pyridin-2-ylamino]-3-methyl-isoxazol-5-yl}-biphenyl-4-yl)-cyclopropanecarboxylic acid] | > 7.00 | –
4 | Cc1noc(-c2ccc(-c3ccc(C4(C(=O)O)CC4)cc3)cc2)c1C(O)c1cn(Cc2ccccc2)nn1 (single isomer, unassigned) [Compound 19, 1-(4′-{4-[(1-Benzyl-1H-[1,2,3]triazol-4-yl)-hydroxy-methyl]-3-methyl-isoxazol-5-yl}-biphenyl-4-yl)-cyclopropanecarboxylic acid] | – | collagen concentration in broncheoalveolar lavage fluid (BALF) [2]: significantly reduced; total protein concentration in broncheoalveolar lavage fluid (BALF) [2]: significantly reduced
5 | Cc1noc(-c2ccc(-c3ccc(C4(C(=O)NS(C)(=O)=O)CC4)cc3)cc2)c1C(O)c1cn(Cc2ccccc2)nn1 (single isomer, unassigned) [Compound 91, N-[1-(4′-{4-[(1-Benzyl-1H-[1,2,3]triazol-4-yl)-hydroxy-methyl]-3-methyl-isoxazol-5-yl}-biphenyl-4-yl)-cyclopropanecarbonyl]-methanesulfonamide] | > 7.00 | –
6 | Cc1noc(-c2ccc(-c3ccc(C4(C(=O)O)CC4)cc3)cc2)c1Nc1cncc(-c2cccc(F)c2Cl)c1 [Compound 82, 1-(4′-{4-[5-(2-Chloro-3-fluoro-phenyl)-pyridin-3-ylamino]-3-methyl-isoxazol-5-yl}-biphenyl-4-yl)-cyclopropanecarboxylic acid] | > 7.00 | –
7 | Cc1noc(-c2ccc(-c3ccc(C4(C(=O)O)CC4)cc3)cc2)c1Nc1cccc(-c2cccc(C(F)(F)F)c2Cl)n1 [Compound 84, 1-(4′-{4-[6-(2-Chloro-3-trifluoromethyl-phenyl)-pyridin-2-ylamino]-3-methyl-isoxazol-5-yl}-biphenyl-4-yl)-cyclopropanecarboxylic acid] | – | pIC50 [3]: 6.00 to 6.52
8 | Cc1noc(-c2ccc(CSCCC(=O)O)cc2)c1NC(=O)OC(C)c1ccccc1Cl (stereo not shown) [Ki16425] | – | development of renal fibrosis in UUO mice [4]: closely resembled the LPA1 (−/−) mice; LPA-induced and ascites-induced invasion activity [5]: blocked

The next lines start with results.

Row | pIC50 [1] | SMILES | also measured
9 | > 7.00 | Cc1noc(-c2ccc(-c3ccc(C4(C(=O)O)CC4)cc3)cc2)c1Nc1cncc(-c2ccccc2Cl)c1 [Compound 64, 1-(4′-{4-[5-(2-Chloro-phenyl)-pyridin-3-ylamino]-3-methyl-isoxazol-5-yl}-biphenyl-4-yl)-cyclopropanecarboxylic acid] | –
10 | > 7.00 | Cc1noc(-c2ccc(-c3ccc(C4(C(=O)O)CC4)cc3)cc2)c1Nc1cccc(-c2cccc(F)c2C)n1 [Compound 83, 1-(4′-{4-[6-(3-Fluoro-2-methyl-phenyl)-pyridin-2-ylamino]-3-methyl-isoxazol-5-yl}-biphenyl-4-yl)-cyclopropanecarboxylic acid] | –
11 | > 7.00 | COc1ccc(F)cc1-c1cccc(Nc2c(C)noc2-c2ccc(-c3ccc(C4(C(=O)O)CC4)cc3)cc2)n1 [Compound 75, 1-(4′-{4-[6-(5-Fluoro-2-methoxy-phenyl)-pyridin-2-ylamino]-3-methyl-isoxazol-5-yl}-biphenyl-4-yl)-cyclopropanecarboxylic acid] | –
